Experimental data as given in US8906908B2, “Hydroxybupropion analogues for treating drug dependence” (priority 2010, dated 2014).

Legend:
[1] = tested on: Male Institute of Cancer Research (ICR) mice; experiment: Hot-plate test, blockade of nicotine-induced antinociception; format: in vivo; details: pretreatment 15 min before nicotine 2.5 mg/kg s.c., tested 5 min after nicotine; for ED50: Mus musculus, read-out: AD50 Hot-plate
Excerpt: (§1) Animals: Male Institute of Cancer Research (ICR) mice (weighing 20-25 g) obtained from Harlan (Indianapolis, Ind.) were used throughout the study. Animals were housed in an Association for Assessment and Accreditation of Laboratory Animal Care-approved facility, were placed in groups of six, and had free access to food and water. Studies were approved by the Institutional Animal Care and Use Committee of Virginia Commonwealth University.
Hot-Plate Test: Mice were placed into a 10-cm wide glass cylinder on a hot plate (Thermojust Apparatus) maintained at 55° C. for assessment of pain responses mediated at supraspinal levels. To minimize tissue damage, a maximum exposure to the hot plate 40 s was imposed. Measures of control latencies (time until the animal jumped or licked its paws; typically 8-12 s) were done twice for stimuli applied at least 10 min apart for each mouse. Antinociceptive responses after test drug administrations were determined and calculated as the % MPE, where % MPE=[(test latency in s−control latency in s)/(40 s−control latency in s)×100]. Groups of 8 to 12 animals were used for each drug condition. […] The animals were then tested 5 min after administration of a subcutaneous dose of 2.5 mg/kg nicotine.

[2] = tested on: Male Institute of Cancer Research (ICR) mice; experiment: Tail-flick test, blockade of nicotine-induced antinociception; format: in vivo; details: for ED50: Mus musculus, 5 min, read-out: AD50 Tail-flick; for ED50 / AD50 Tail-flick: mice, pretreatment 15 min before nicotine 2.5 mg/kg s.c., tested 5 min after nicotine
Excerpt: as §1
Tail-Flick Test: Antinociception for pain mediated at the spinal level was assessed by the tail-flick method of D'Amour, F. E.; Smith, D. L., J. Pharmacol. Exp. Ther. 1941, 72, 74-79, incorporated herein by reference in its entirety. In brief, mice were lightly restrained while a radiant heat source was shone onto the upper portion of the tail. To minimize tissue damage, a maximum latency of 10 s was imposed. Latency to remove the tail from the heat source was recorded for each animal. […] Antinociceptive response was calculated as the percentage of maximum possible effect (% MPE), where % MPE=[(test control)/(10 control)]×100.

[3] = tested on: Male Institute of Cancer Research (ICR) mice; experiment: Body temperature, antagonism of nicotine-induced hypothermia; format: in vivo; details: pretreatment 15 min before nicotine 2.5 mg/kg s.c., tested 30 min after nicotine; for ED50: Mus musculus, 0.5 h, read-out: AD50 Hypothermia
Experimental: as §1
Body Temperature: Rectal temperature was measured by a thermistor probe (inserted 24 mm) and digital thermometer (YSI Inc., Yellow Springs, Ohio). Readings were taken just before and 30 min after subcutaneous injection of either saline or 2.5 mg/kg nicotine. The difference in rectal temperature before and after treatment was calculated for each mouse. The ambient temperature of the laboratory varied from 21 to 24° C. from day to day. […] The animals were then tested 30 min after administration of a subcutaneous dose of 2.5 mg/kg nicotine.

[4] = target: T1, α3β4*-nAChR (Homo sapiens, UniProt P30926+P32297); experiment: 86Rb+ efflux nAChR functional assay, SH-SY5Y cells; format: cell-based; details: EC80-EC90 carbamylcholine; SH-SY5Y; parentheses = S.E.M. as multiplication/division factor; read-out: nAChR inhibition IC50 α3β4±
T1 construct: other: EC80-EC90 carbamylcholine; SH-SY5Y; parentheses = S.E.M. as multiplication/division
T1 sequence (P32297 32-505): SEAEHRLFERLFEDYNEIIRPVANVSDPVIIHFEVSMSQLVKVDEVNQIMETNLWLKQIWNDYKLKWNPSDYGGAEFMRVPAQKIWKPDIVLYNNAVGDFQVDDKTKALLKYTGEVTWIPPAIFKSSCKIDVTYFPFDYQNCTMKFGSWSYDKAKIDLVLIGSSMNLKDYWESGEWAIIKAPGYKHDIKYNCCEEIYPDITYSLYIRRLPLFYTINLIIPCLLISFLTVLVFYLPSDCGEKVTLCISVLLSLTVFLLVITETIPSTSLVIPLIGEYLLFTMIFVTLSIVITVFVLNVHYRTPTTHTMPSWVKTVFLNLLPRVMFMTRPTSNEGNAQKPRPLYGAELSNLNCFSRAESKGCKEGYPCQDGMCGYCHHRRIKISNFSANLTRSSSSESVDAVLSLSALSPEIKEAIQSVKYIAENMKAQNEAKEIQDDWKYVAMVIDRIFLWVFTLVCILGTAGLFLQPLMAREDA
T1 sequence (P30926 22-498): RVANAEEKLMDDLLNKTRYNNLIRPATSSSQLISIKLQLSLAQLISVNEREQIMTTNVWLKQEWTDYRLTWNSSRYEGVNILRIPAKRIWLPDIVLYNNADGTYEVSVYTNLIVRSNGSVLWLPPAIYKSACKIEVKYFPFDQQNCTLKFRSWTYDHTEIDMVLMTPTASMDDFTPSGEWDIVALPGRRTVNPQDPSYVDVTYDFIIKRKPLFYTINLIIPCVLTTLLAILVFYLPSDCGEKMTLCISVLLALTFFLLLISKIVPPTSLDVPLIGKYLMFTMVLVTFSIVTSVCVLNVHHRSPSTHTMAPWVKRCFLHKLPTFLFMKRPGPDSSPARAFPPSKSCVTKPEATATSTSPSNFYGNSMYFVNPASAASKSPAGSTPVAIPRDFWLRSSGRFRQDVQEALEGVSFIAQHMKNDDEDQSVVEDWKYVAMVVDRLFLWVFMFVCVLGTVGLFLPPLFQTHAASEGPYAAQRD
Excerpt: Cell Lines and Culture: Human embryonic kidney (HEK-293) cells stably expressing human DAT, NET or SERT were maintained as previously described in Eshleman, A. J.; Carmolli, M.; Cumbay, M.; Martens, C. R.; Neve, K. A.; Janowsky, A., J. Pharmacol. Exp. Ther. 1999, 289, (2), 877-885. Use was made of several human cell lines that naturally or heterologously express specific, functional, human nAChR subtypes. Cells of the TE671/RD line naturally expresses muscle-type nAChR (a1β1γδ- or α1*-nAChR), and SH-SY5Y neuroblastoma cells naturally expresses autonomic α3β4*-nAChRs (containing α3, β4, probably α5, and sometimes β2 subunits). Different clones of SH-EP1 epithelial cell lines have been engineered to heterologously express either α4β2-nAChR, which are thought to be the most abundant, high affinity nicotine-binding nAChR in mammalian brain, or α4β4-nAChR, another possible brain nAChR subtype (SH-EP1-hα4β2 or α4β4 cells, respectively). These cells were maintained as low passage number (1-26 from our frozen stocks) cultures to ensure stable expression of native or heterologously-expressed nAChR as previously described (see Lukas, R. J.; Fryer, J. D.; Eaton, J. B.; L., G. C., Some methods for studies of nicotinic acetylcholine receptor pharmacology, in Nicotinic receptors and the Nervous System, Levine, E. D., Ed. CRC Press: Boca Raton, 2002; pp 3-27, incorporated herein by reference in its entirety). Cells were passaged once weekly by splitting just-confluent cultures 1/300 (TE671/RD), 1/5 (SH-SY5Y), or 1/20 (transfected SH-EP1) in serum-supplemented medium to maintain log-phase growth.
After cells had adhered (generally overnight, but no sooner than 4 h later), the medium was removed and replaced with 250 μL per well of complete medium supplemented with ˜350,000 cpm of ^86Rb^+ (PerkinElmer Life and Analytical Sciences, Boston, Mass.) and counted at 40% efficiency using Cerenkov counting (TriCarb 1900 liquid scintillation analyzer[…]; PerkinElmer Life Sciences).
After at least 4 h and typically overnight, ^86Rb^+ efflux was measured using the “flip-plate” technique. See Lukas, R. J.; Fryer, J. D.; Eaton, J. B.; L., G. C., Some methods for studies of nicotinic acetylcholine receptor pharmacology, in Nicotinic receptors and the Nervous System, Levine, E. D., Ed. CRC Press: Boca Raton, 2002; pp 3-27, incorporated herein by reference in its entirety). Briefly, after aspiration of the bulk of ^86Rb^+ loading medium from each well of the “cell plate,” each well containing cells was rinsed 3× with 2 mL of fresh ^86Rb^+ efflux buffer (130 mM NaCl, 5.4 mM KCl, 2 mM CaCl2, 5 mM glucose, 50 mM HEPES, pH 7.4) to remove extracellular ^86Rb^+. Following removal of residual rinse buffer by aspiration, the flip-plate technique was used again to simultaneously introduce 1.5 mL of fresh efflux buffer containing drugs of choice at indicated final concentrations from a 24-well “efflux/drug plate” into the wells of the cell plate. After a 5 min incubation, the solution was “flipped” back into the efflux/drug plate, and any remaining buffer in the cell plate was removed by aspiration. Cells remaining in the cell plate were lysed and suspended by addition of 1.5 mL of 0.1 M NaOH, 0.1% sodium dodecyl sulfate to each well.
Similarly, the sum of ^86Rb^+ in cell plates and efflux/drug plates also determined the efficiency of ^86Rb^+ loading (the percentage of applied ^86Rb^+ actually loaded into cells).
Specific efflux was then taken as the difference in control samples between total and non-specific ^86Rb^+ efflux. Any intrinsic agonist activity of test drugs was ascertained using samples containing test drug only at different concentrations and was normalized, after subtraction of non-specific efflux, to specific efflux in test drug-free, control samples.

| SMILES | AD50 Hot-plate [1] | ED50 [2] [mg/kg] | AD50 Hypothermia [3] | AD50 Tail-flick [2] | IC50 [4] [µM] | ED50 [3] [mg/kg] | ED50 [1] [mg/kg] | activity in the tail-flick assay relative to (2S,3S)-4a ([2]; higher activity than (2S,3S)-4a) [fold] |
| --- | --- | --- | --- | --- | --- | --- | --- | --- |
| CC1NC(C)(C)COC1(O)c1ccc(Cl)c(Cl)c1 (racemic) [Compound 4n, 2-(3,4-Dichlorophenyl)-3,5,5-trimethylmorpholin-2-ol] | IA (IA: AD50 > 15 mg/kg) | 8.8 | IA (IA: AD50 > 15 mg/kg) |  |  |  |  |  |
| CC1NC(C)(C)COC1(O)c1cc(Cl)cc(Cl)c1 (racemic) [Compound 4p, 2-(3,5-Dichlorophenyl)-3,5,5-trimethylmorpholin-2-ol] | IA (IA: AD50 > 15 mg/kg) |  | IA (IA: AD50 > 15 mg/kg) | IA (IA: AD50 > 15 mg/kg) |  |  |  |  |
| C[C@@H]1NC(C)(C)CO[C@@]1(O)c1ccccc1 [Compound 4b, (2S,3S)-2-Phenyl-3,5,5-trimethylmorpholin-2-ol] | IA (IA: AD50 > 15 mg/kg) |  | IA (IA: AD50 > 15 mg/kg) | IA (IA: AD50 > 15 mg/kg) | 8.9 |  |  |  |
| C[C@@H]1NC(C)(C)CO[C@@]1(O)c1cccc(F)c1 [Compound 4c, (2S,3S)-2-(3-Fluorophenyl)-3,5,5-trimethylmorpholin-2-ol] |  | 0.012 to 0.013 |  |  | 15 | 2.3 to 7 |  |  |
| C[C@@H]1NC(C)(C)CO[C@@]1(O)c1cccc(Br)c1 [Compound 4d, (2S,3S)-2-(3-Bromophenyl)-3,5,5-trimethylmorpholin-2-ol] |  | 0.16 |  |  | 3.2 | 1.7 | 3.7 to 8.6 |  |
| Cc1cccc([C@]2(O)OCC(C)(C)N[C@H]2C)c1 [Compound 4e, (2S,3S)-2-(m-Tolyl)-3,5,5-trimethylmorpholin-2-ol] |  | 0.054 |  |  | 8.6 | 2.3 to 7 |  |  |
| COc1cccc([C@]2(O)OCC(C)(C)N[C@H]2C)c1 [Compound 4f, (2S,3S)-2-(3-Methoxyphenyl)-3,5,5-trimethylmorpholin-2-ol] | IA (IA: AD50 > 15 mg/kg) | 5.85 | IA (IA: AD50 > 15 mg/kg) |  | 11 |  |  |  |
| C[C@@H]1NC(C)(C)CO[C@@]1(O)c1cccc([N+](=O)[O-])c1 [Compound 4g, (2S,3S)-2-(3-Nitrophenyl)-3,5,5-trimethylmorpholin-2-ol] | IA (IA: AD50 > 15 mg/kg) | 4.9 |  |  | 14 |  |  |  |
| C[C@@H]1NC(C)(C)CO[C@@]1(O)c1ccc(F)cc1 [Compound 4h, (2S,3S)-2-(4-Fluorophenyl)-3,5,5-trimethylmorpholin-2-ol] | IA (IA: AD50 > 15 mg/kg) | 0.012 to 0.013 |  |  | 20 |  |  |  |
| C[C@@H]1NC(C)(C)CO[C@@]1(O)c1ccc(Cl)cc1 [Compound 4i, (2S,3S)-2-(4-Chlorophenyl)-3,5,5-trimethylmorpholin-2-ol] | IA (IA: AD50 > 15 mg/kg) | 0.019 | IA (IA: AD50 > 15 mg/kg) |  | 5.1 |  |  |  |
| Cc1ccc([C@]2(O)OCC(C)(C)N[C@H]2C)cc1 [Compound 4j, (2S,3S)-3,5,5-Trimethyl-2-(4-methylphenyl)morpholin-2-ol] | IA (IA: AD50 > 15 mg/kg) | 0.004 | IA (IA: AD50 > 15 mg/kg) |  | 8.6 |  |  |  |
| COc1ccc([C@]2(O)OCC(C)(C)N[C@H]2C)cc1 [Compound 4k, (2S,3S)-2-(4-Methoxyphenyl)-3,5,5-trimethylmorpholin-2-ol] | IA (IA: AD50 > 15 mg/kg) | 0.019 | IA (IA: AD50 > 15 mg/kg) |  | 11 |  |  |  |
| C[C@@H]1NC(C)(C)CO[C@@]1(O)c1ccc(-c2ccccc2)cc1 [Compound 4l, (2S,3S)-2-Biphenyl-4-yl-3,5,5-trimethylmorpholin-2-ol] | IA (IA: AD50 > 15 mg/kg) | 0.021 | IA (IA: AD50 > 15 mg/kg) |  | 1.3 |  |  |  |
| C[C@@H]1NC(C)(C)CO[C@@]1(O)c1ccc(F)c(F)c1 [Compound 4m, (2S,3S)-2-(3,4-Difluorophenyl)-3,5,5-trimethylmorpholin-2-ol] | IA (IA: AD50 > 15 mg/kg) | 0.006 | IA (IA: AD50 > 15 mg/kg) |  | 11.9 |  |  |  |
| C[C@@H]1NC(C)(C)CO[C@@]1(O)c1cc(F)cc(F)c1 [Compound 4o, (2S,3S)-2-(3,5-Difluorophenyl)-3,5,5-trimethylmorpholin-2-ol] | IA (IA: AD50 > 15 mg/kg) | 0.0056 | IA (IA: AD50 > 15 mg/kg) | ~0.006 mg/kg | 11 |  |  |  |
| C[C@@H]1NC(C)(C)CO[C@@]1(O)c1cccc2ccccc12 [Compound 4q, (2S,3S)-2-(Naphthalen-1-yl)-3,5,5-trimethylmorpholin-2-ol] | IA (IA: AD50 > 15 mg/kg) | 0.034 | IA (IA: AD50 > 15 mg/kg) |  | 5.2 |  |  | ~5 |
| CC[C@@H]1NC(C)(C)CO[C@@]1(O)c1cccc(Cl)c1 [Compound 4s, (2S,3S)-2-(3-Chlorophenyl)-3-ethyl-5,5-dimethylmorpholin-2-ol] |  | 0.004 |  |  | 4.3 |  | 3.7 to 8.6 |  |
